Assay results reported in PMC4725312 (Journal of biomolecular screening, 2010).

Molecular target: TRPM7 (Mus musculus, UniProt Q923J1)
Format: cell-based

TRPM7, sequence (Q923J1 whole entry): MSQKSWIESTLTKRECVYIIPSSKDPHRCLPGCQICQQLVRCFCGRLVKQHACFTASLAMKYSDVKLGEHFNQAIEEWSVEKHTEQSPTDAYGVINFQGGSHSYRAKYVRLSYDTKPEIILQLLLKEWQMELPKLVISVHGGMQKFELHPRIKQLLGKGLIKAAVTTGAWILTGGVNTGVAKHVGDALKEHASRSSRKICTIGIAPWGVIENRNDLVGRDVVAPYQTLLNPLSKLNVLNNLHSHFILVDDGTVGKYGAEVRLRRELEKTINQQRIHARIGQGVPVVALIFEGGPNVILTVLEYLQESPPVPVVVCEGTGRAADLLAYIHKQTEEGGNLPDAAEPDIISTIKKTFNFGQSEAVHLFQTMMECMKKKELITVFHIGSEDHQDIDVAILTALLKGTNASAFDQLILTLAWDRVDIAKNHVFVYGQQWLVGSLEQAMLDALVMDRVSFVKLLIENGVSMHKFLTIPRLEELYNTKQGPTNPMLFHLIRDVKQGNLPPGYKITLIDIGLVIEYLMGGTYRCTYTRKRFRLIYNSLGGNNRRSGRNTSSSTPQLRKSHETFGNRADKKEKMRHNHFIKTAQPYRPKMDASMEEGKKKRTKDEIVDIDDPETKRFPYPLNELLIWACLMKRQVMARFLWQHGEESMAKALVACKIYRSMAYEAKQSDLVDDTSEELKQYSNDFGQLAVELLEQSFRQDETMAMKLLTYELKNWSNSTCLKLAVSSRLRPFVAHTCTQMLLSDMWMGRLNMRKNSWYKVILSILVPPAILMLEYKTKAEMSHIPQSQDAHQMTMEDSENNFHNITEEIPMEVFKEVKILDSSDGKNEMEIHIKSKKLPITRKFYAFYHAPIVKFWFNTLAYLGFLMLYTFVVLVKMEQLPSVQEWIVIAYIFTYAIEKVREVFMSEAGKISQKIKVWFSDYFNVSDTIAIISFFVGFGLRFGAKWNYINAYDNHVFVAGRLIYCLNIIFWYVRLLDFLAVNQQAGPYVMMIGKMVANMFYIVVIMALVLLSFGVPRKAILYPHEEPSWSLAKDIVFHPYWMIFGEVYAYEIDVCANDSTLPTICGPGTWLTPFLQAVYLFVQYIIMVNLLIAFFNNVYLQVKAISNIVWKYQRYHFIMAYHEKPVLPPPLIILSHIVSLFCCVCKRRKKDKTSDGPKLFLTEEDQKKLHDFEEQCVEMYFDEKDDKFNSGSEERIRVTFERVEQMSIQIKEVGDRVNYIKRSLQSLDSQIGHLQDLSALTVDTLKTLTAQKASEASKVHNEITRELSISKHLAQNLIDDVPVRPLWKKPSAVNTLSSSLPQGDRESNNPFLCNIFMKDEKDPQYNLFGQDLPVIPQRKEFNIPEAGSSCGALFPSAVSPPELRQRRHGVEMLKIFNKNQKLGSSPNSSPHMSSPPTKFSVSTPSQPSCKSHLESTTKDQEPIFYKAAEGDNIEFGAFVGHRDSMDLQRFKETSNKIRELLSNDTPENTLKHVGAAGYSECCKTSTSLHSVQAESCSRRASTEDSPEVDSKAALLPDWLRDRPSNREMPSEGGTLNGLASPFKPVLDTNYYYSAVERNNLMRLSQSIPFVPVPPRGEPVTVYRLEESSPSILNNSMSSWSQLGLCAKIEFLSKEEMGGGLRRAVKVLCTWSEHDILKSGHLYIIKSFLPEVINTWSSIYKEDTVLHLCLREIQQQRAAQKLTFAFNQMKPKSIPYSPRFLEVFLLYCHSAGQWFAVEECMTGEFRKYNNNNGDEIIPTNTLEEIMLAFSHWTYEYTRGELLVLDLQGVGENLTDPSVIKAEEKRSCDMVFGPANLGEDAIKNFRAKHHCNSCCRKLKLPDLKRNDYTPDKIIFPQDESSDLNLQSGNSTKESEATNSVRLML

## NCCOB(c1ccccc1)c1ccccc1 [2-APB]
  IC50: 30 µM
